# Measured values as given in patent US10738028B2, “Spiro three-membered ring, spiro five-membered ring peptide deformylase inhibitor and use thereof in antibacteria and anti-tumor” (priority 2016, dated 2020).
# Experiments:
# Format in all cases: cell-based
# [1] = system: HCT-116 colorectal cancer cell line; assay: CCK-8 proliferation inhibition; conditions: Homo sapiens, HCT-116, 72 h, concentration of 30 μM; 72 hours; CCK-8; read-out: HCT116 inhibition rate/%
# Outline: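 Growth inhibition is read by CCK-8 (1:10 dilution) after 72 h of compound exposure. HCT-116 cells grow in McCoy's 5A containing 10% newborn bovine serum at 2000 cells/well, with 1‰ DMSO as vehicle control.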
# [2] = system: Streptococcus pneoumoniae (SPN); assay: MIC, two-fold agar dilution (CLSI), clinical isolates; conditions: for Anti-bacterial activity (MIC), strain SPN 16-2: clinical isolate SPN 16-2; for Anti-bacterial activity (MIC), strain SPN 16-4: clinical isolate SPN 16-4
# Outline: (§1)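 Test samples were assayed by the CLSI-recommended two-fold agar dilution method, and the minimum inhibitory concentration against each tested strain was determined.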
# [3] = system: Moraxella catarrhalis (BCA); assay: as above; conditions: for Anti-bacterial activity (MIC), strain BCA 14-1: clinical isolate BCA 14-1; for Anti-bacterial activity (MIC), strain BCA 14-4: clinical isolate BCA 14-4; for Anti-bacterial activity (MIC), strain BCA 14-5: clinical isolate BCA 14-5; for Anti-bacterial activity (MIC), strain BCA 14-6: clinical isolate BCA 14-6; for Anti-bacterial activity (MIC), strain BCA 14-7: clinical isolate BCA 14-7; for Anti-bacterial activity (MIC), strain BCA 14-8: clinical isolate BCA 14-8; for Anti-bacterial activity (MIC), strain BCA 14-10: clinical isolate BCA 14-10
# Outline: as §1
# [4] = system: methicillin-sensitive Staphylococcus aureus (MSSA); assay: as above; conditions: for Anti-bacterial activity (MIC), strain MSSA 15-3: clinical isolate MSSA 15-3; for Anti-bacterial activity (MIC), strain MSSA 15-4: clinical isolate MSSA 15-4; for Anti-bacterial activity (MIC), strain MSSA 15-5: clinical isolate MSSA 15-5; for Anti-bacterial activity (MIC), strain MSSA 15-6: clinical isolate MSSA 15-6
# Outline: as §1
# [5] = system: methicillin-sensitive Staphylococcus epidermidis (MSSE); assay: as above; conditions: for Anti-bacterial activity (MIC), strain MSSE 15-3: clinical isolate MSSE 15-3; for Anti-bacterial activity (MIC), strain MSSE 15-4: clinical isolate MSSE 15-4; for Anti-bacterial activity (MIC), strain MSSE 15-5: clinical isolate MSSE 15-5; for Anti-bacterial activity (MIC), strain MSSE 15-6: clinical isolate MSSE 15-6
# Outline: as §1
# [6] = system: Enterococcus faecium (EFM); assay: as above; conditions: for Anti-bacterial activity (MIC), strain EFM 15-1: clinical isolate EFM 15-1; for Anti-bacterial activity (MIC), strain EFM 15-2: clinical isolate EFM 15-2; for Anti-bacterial activity (MIC), strain EFM 15-3: clinical isolate EFM 15-3; for Anti-bacterial activity (MIC), strain EFM 15-4: clinical isolate EFM 15-4; for Anti-bacterial activity (MIC), strain EFM 15-5: clinical isolate EFM 15-5; for Anti-bacterial activity (MIC), strain EFM 15-6: clinical isolate EFM 15-6
# Outline: as §1
# [7] = system: Enterococcus faecalis (EFA); assay: as above; conditions: for Anti-bacterial activity (MIC), strain EFA 15-1: clinical isolate EFA 15-1; for Anti-bacterial activity (MIC), strain EFA 15-2: clinical isolate EFA 15-2; for Anti-bacterial activity (MIC), strain EFA 15-3: clinical isolate EFA 15-3; for Anti-bacterial activity (MIC), strain EFA 15-4: clinical isolate EFA 15-4; for Anti-bacterial activity (MIC), strain EFA 15-5: clinical isolate EFA 15-5; for Anti-bacterial activity (MIC), strain EFA 15-6: clinical isolate EFA 15-6; for Anti-bacterial activity (MIC), strain EFA 15-9: clinical isolate EFA 15-9
# Outline: as §1
# [8] = system: methicillin-resistant Staphylococcus epidermidis (MRSE); assay: as above; conditions: for Anti-bacterial activity (MIC), strain MRSE 15-1: clinical isolate MRSE 15-1; for Anti-bacterial activity (MIC), strain MRSE 15-2: clinical isolate MRSE 15-2; for Anti-bacterial activity (MIC), strain MRSE 15-3: clinical isolate MRSE 15-3; for Anti-bacterial activity (MIC), strain MRSE 15-7: clinical isolate MRSE 15-7
# Outline: as §1
# [9] = system: methicillin-resistant Staphylococcus aureus (MRSA); assay: as above; conditions: for Anti-bacterial activity (MIC), strain MRSA 15-1: clinical isolate MRSA 15-1; for Anti-bacterial activity (MIC), strain MRSA 15-2: clinical isolate MRSA 15-2; for Anti-bacterial activity (MIC), strain MRSA 15-3: clinical isolate MRSA 15-3; for Anti-bacterial activity (MIC), strain MRSA 15-4: clinical isolate MRSA 15-4
# Outline: as §1
# [10] = system: Escherichia coli (including ESBLs, non-ESBLs); assay: as above; conditions: for Anti-bacterial activity (MIC), strain ECO+ 15-1: clinical isolate ECO+ 15-1; for Anti-bacterial activity (MIC), strain ECO+ 15-2: clinical isolate ECO+ 15-2; for Anti-bacterial activity (MIC), strain ECO+ 15-3: clinical isolate ECO+ 15-3; for Anti-bacterial activity (MIC), strain ECO+ 15-4: clinical isolate ECO+ 15-4; for Anti-bacterial activity (MIC), strain ECO− 15-1: clinical isolate ECO− 15-1; for Anti-bacterial activity (MIC), strain ECO− 15-2: clinical isolate ECO− 15-2; for Anti-bacterial activity (MIC), strain ECO− 15-3: clinical isolate ECO− 15-3; for Anti-bacterial activity (MIC), strain ECO− 15-4: clinical isolate ECO− 15-4
# Outline: as §1
structure (smiles),measurement,setting,value
CCCC[C@H](CC(=O)NO)C(=O)N1CC2(CC2)C[C@H]1C(=O)Nc1ccncn1 [Example 45],inhibition at 30 µM,[1],25%
same,"Anti-bacterial activity (MIC), strain SPN 16-2",[2],0.5 µg/mL
same,"Anti-bacterial activity (MIC), strain SPN 16-4",[2],0.5 µg/mL
same,"Anti-bacterial activity (MIC), strain BCA 14-1",[3],1 µg/mL
same,"Anti-bacterial activity (MIC), strain BCA 14-4",[3],1 µg/mL
same,"Anti-bacterial activity (MIC), strain BCA 14-5",[3],0.5 µg/mL
same,"Anti-bacterial activity (MIC), strain BCA 14-6",[3],0.5 µg/mL
same,"Anti-bacterial activity (MIC), strain BCA 14-7",[3],1 µg/mL
same,"Anti-bacterial activity (MIC), strain BCA 14-8",[3],1 µg/mL
same,"Anti-bacterial activity (MIC), strain BCA 14-10",[3],1 µg/mL
same,"Anti-bacterial activity (MIC), strain MSSA 15-3",[4],0.5 µg/mL
same,"Anti-bacterial activity (MIC), strain MSSA 15-4",[4],1 µg/mL
same,"Anti-bacterial activity (MIC), strain MSSA 15-5",[4],1 µg/mL
same,"Anti-bacterial activity (MIC), strain MSSA 15-6",[4],> 32 µg/mL
same,"Anti-bacterial activity (MIC), strain MSSE 15-3",[5],1 µg/mL
same,"Anti-bacterial activity (MIC), strain MSSE 15-4",[5],1 µg/mL
same,"Anti-bacterial activity (MIC), strain MSSE 15-5",[5],1 µg/mL
same,"Anti-bacterial activity (MIC), strain MSSE 15-6",[5],1 µg/mL
same,"Anti-bacterial activity (MIC), strain EFM 15-1",[6],> 32 µg/mL
same,"Anti-bacterial activity (MIC), strain EFM 15-2",[6],> 32 µg/mL
same,"Anti-bacterial activity (MIC), strain EFM 15-3",[6],> 32 µg/mL
same,"Anti-bacterial activity (MIC), strain EFM 15-4",[6],> 32 µg/mL
same,"Anti-bacterial activity (MIC), strain EFM 15-5",[6],0.5 µg/mL
same,"Anti-bacterial activity (MIC), strain EFM 15-6",[6],0.5 µg/mL
same,"Anti-bacterial activity (MIC), strain EFA 15-1",[7],> 32 µg/mL
same,"Anti-bacterial activity (MIC), strain EFA 15-2",[7],> 32 µg/mL
same,"Anti-bacterial activity (MIC), strain EFA 15-3",[7],> 32 µg/mL
same,"Anti-bacterial activity (MIC), strain EFA 15-4",[7],> 32 µg/mL
same,"Anti-bacterial activity (MIC), strain EFA 15-5",[7],> 32 µg/mL
same,"Anti-bacterial activity (MIC), strain EFA 15-6",[7],> 32 µg/mL
same,"Anti-bacterial activity (MIC), strain EFA 15-9",[7],16 µg/mL
same,"Anti-bacterial activity (MIC), strain MRSE 15-1",[8],1 µg/mL
same,"Anti-bacterial activity (MIC), strain MRSE 15-2",[8],1 µg/mL
same,"Anti-bacterial activity (MIC), strain MRSE 15-3",[8],1 µg/mL
same,"Anti-bacterial activity (MIC), strain MRSE 15-7",[8],1 µg/mL
same,"Anti-bacterial activity (MIC), strain MRSA 15-1",[9],0.5 µg/mL
same,"Anti-bacterial activity (MIC), strain MRSA 15-2",[9],1 µg/mL
same,"Anti-bacterial activity (MIC), strain MRSA 15-3",[9],1 µg/mL
same,"Anti-bacterial activity (MIC), strain MRSA 15-4",[9],1 µg/mL
same,"Anti-bacterial activity (MIC), strain ECO+ 15-1",[10],32 µg/mL
same,"Anti-bacterial activity (MIC), strain ECO+ 15-2",[10],> 32 µg/mL
same,"Anti-bacterial activity (MIC), strain ECO+ 15-3",[10],> 32 µg/mL
same,"Anti-bacterial activity (MIC), strain ECO+ 15-4",[10],1 µg/mL
same,"Anti-bacterial activity (MIC), strain ECO− 15-1",[10],32 µg/mL
same,"Anti-bacterial activity (MIC), strain ECO− 15-2",[10],> 32 µg/mL
same,"Anti-bacterial activity (MIC), strain ECO− 15-3",[10],> 32 µg/mL
same,"Anti-bacterial activity (MIC), strain ECO− 15-4",[10],> 32 µg/mL
"CCCC[C@H](CC(=O)NO)C(=O)N1CC2(CC2)C[C@H]1C(=O)Nc1ncc(C)s1 [Example 47, (S)-5-((R)-2-(2-(hydroxyamino)-2-oxoethyl)hexanoyl)-N-(5-methylthiazol-2-yl)-5-azaspiro[2.4]heptane-6-amide]",inhibition at 30 µM,[1],20%
same,"Anti-bacterial activity (MIC), strain SPN 16-2",[2],0.5 µg/mL
same,"Anti-bacterial activity (MIC), strain SPN 16-4",[2],0.5 µg/mL
same,"Anti-bacterial activity (MIC), strain BCA 14-1",[3],4 µg/mL
same,"Anti-bacterial activity (MIC), strain BCA 14-4",[3],4 µg/mL
same,"Anti-bacterial activity (MIC), strain BCA 14-5",[3],0.25 µg/mL
same,"Anti-bacterial activity (MIC), strain BCA 14-6",[3],2 µg/mL
same,"Anti-bacterial activity (MIC), strain BCA 14-7",[3],2 µg/mL
same,"Anti-bacterial activity (MIC), strain BCA 14-8",[3],1 µg/mL
same,"Anti-bacterial activity (MIC), strain BCA 14-10",[3],0.5 µg/mL
same,"Anti-bacterial activity (MIC), strain MSSA 15-3",[4],0.5 µg/mL
same,"Anti-bacterial activity (MIC), strain MSSA 15-4",[4],0.5 µg/mL
same,"Anti-bacterial activity (MIC), strain MSSA 15-5",[4],0.5 µg/mL
same,"Anti-bacterial activity (MIC), strain MSSA 15-6",[4],> 32 µg/mL
same,"Anti-bacterial activity (MIC), strain MSSE 15-3",[5],0.5 µg/mL
same,"Anti-bacterial activity (MIC), strain MSSE 15-4",[5],0.5 µg/mL
same,"Anti-bacterial activity (MIC), strain MSSE 15-5",[5],0.5 µg/mL
same,"Anti-bacterial activity (MIC), strain MSSE 15-6",[5],0.5 µg/mL
same,"Anti-bacterial activity (MIC), strain EFM 15-1",[6],> 32 µg/mL
same,"Anti-bacterial activity (MIC), strain EFM 15-2",[6],> 32 µg/mL
same,"Anti-bacterial activity (MIC), strain EFM 15-3",[6],> 32 µg/mL
same,"Anti-bacterial activity (MIC), strain EFM 15-4",[6],> 32 µg/mL
same,"Anti-bacterial activity (MIC), strain EFM 15-5",[6],0.25 µg/mL
same,"Anti-bacterial activity (MIC), strain EFM 15-6",[6],1 µg/mL
same,"Anti-bacterial activity (MIC), strain EFA 15-1",[7],> 32 µg/mL
same,"Anti-bacterial activity (MIC), strain EFA 15-2",[7],> 32 µg/mL
same,"Anti-bacterial activity (MIC), strain EFA 15-3",[7],> 32 µg/mL
same,"Anti-bacterial activity (MIC), strain EFA 15-4",[7],> 32 µg/mL
same,"Anti-bacterial activity (MIC), strain EFA 15-5",[7],> 32 µg/mL
same,"Anti-bacterial activity (MIC), strain EFA 15-6",[7],> 32 µg/mL
same,"Anti-bacterial activity (MIC), strain EFA 15-9",[7],4 µg/mL
same,"Anti-bacterial activity (MIC), strain MRSE 15-1",[8],0.5 µg/mL
same,"Anti-bacterial activity (MIC), strain MRSE 15-2",[8],0.5 µg/mL
same,"Anti-bacterial activity (MIC), strain MRSE 15-3",[8],0.5 µg/mL
same,"Anti-bacterial activity (MIC), strain MRSE 15-7",[8],0.5 µg/mL
same,"Anti-bacterial activity (MIC), strain MRSA 15-1",[9],0.25 µg/mL
same,"Anti-bacterial activity (MIC), strain MRSA 15-2",[9],0.5 µg/mL
same,"Anti-bacterial activity (MIC), strain MRSA 15-3",[9],0.25 µg/mL
same,"Anti-bacterial activity (MIC), strain MRSA 15-4",[9],0.5 µg/mL
same,"Anti-bacterial activity (MIC), strain ECO+ 15-1",[10],32 µg/mL
same,"Anti-bacterial activity (MIC), strain ECO+ 15-2",[10],> 32 µg/mL
same,"Anti-bacterial activity (MIC), strain ECO+ 15-3",[10],> 32 µg/mL
same,"Anti-bacterial activity (MIC), strain ECO+ 15-4",[10],0.5 µg/mL
same,"Anti-bacterial activity (MIC), strain ECO− 15-1",[10],> 32 µg/mL
same,"Anti-bacterial activity (MIC), strain ECO− 15-2",[10],> 32 µg/mL
same,"Anti-bacterial activity (MIC), strain ECO− 15-3",[10],> 32 µg/mL
same,"Anti-bacterial activity (MIC), strain ECO− 15-4",[10],> 32 µg/mL
